# The supplement of paper PMC6045584
# ± gives the standard deviation of the averaged measurements.
# Tests used:
# [1] = compound: Cc1c(N)nc([C@H](CC(N)=O)NC[C@H](N)C(N)=O)nc1C(=O)N[C@H](C(=O)N[C@H](C)[C@@H](O)[C@H](C)C(=O)N[C@H](C(=O)NCCc1nc(-c2nc(C(=O)NCCC[S+](C)C)cs2)cs1)[C@@H](C)O)[C@@H](OC1OC(CO)C(O)C(O)C1OC1OC(CO)C(O)C(OC(N)=O)C1O)c1cnc[nH]1 [BLEOMYCIN]; assay: surviving fraction relative to DMSO-only wells; higher = less growth inhibition; settings: exposure time: 5 days
# Procedure, shortened: (§1)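 Log-phase tumour cell lines were seeded at 250–500 cells per well in 384-well plates. After 24 hours they were exposed continuously for five days to inhibitors at 0.5, 1, 5, 10, 50, 100, 500 and 1000 nM. Viability was read by CellTiter-Glo luminescence after 10 minutes at room temperature, and surviving fraction is luminescence normalised to the median of DMSO-only wells. Each line was screened three times and kept only if replicate Pearson r >0.7 and median Z' >0.3.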
# [2] = compound: C=CCn1c(=O)c2cnc(Nc3ccc(N4CCN(C)CC4)cc3)nc2n1-c1cccc(C(C)(C)O)n1 [MK-1775]; assay: as above; settings: exposure time: 5 days
# Procedure, shortened: as §1
Test System,surviving fraction ([1]; 0.5 nM),surviving fraction ([1]; 1 nM),surviving fraction ([1]; 5 nM),surviving fraction ([1]; 10 nM),surviving fraction ([1]; 50 nM),surviving fraction ([1]; 100 nM),surviving fraction ([1]; 500 nM),surviving fraction ([1]; 1000 nM),surviving fraction ([2]; 0.5 nM),surviving fraction ([2]; 1 nM),surviving fraction ([2]; 5 nM),surviving fraction ([2]; 10 nM),surviving fraction ([2]; 50 nM),surviving fraction ([2]; 100 nM),surviving fraction ([2]; 500 nM),surviving fraction ([2]; 1000 nM)
SCC47 HEADNECK,0.907 ± 0.031,0.909 ± 0.046,0.917 ± 0.038,0.9 ± 0.019,0.843 ± 0.026,0.677 ± 0.047,0.466 ± 0.057,0.436 ± 0.035,1.01 ± 0.031,1.06 ± 0.025,1.11 ± 0.051,1.11 ± 0.08,0.992 ± 0.053,0.713 ± 0.047,0.238 ± 0.025,0.159 ± 0.014
U2OS BONE,0.904 ± 0.028,0.942 ± 0.05,0.933 ± 0.04,0.9 ± 0.039,1.01 ± 0.023,0.8983 ± 0.0064,0.734 ± 0.017,0.617 ± 0.011,1.03 ± 0.028,0.991 ± 0.043,1.07 ± 0.032,1.07 ± 0.034,0.922 ± 0.039,0.641 ± 0.028,0.133 ± 0.002,0.0693 ± 0.0045
SKBR3 BREAST,0.886 ± 0.19,0.721 ± 0.1,0.81 ± 0.16,0.768 ± 0.15,0.872 ± 0.15,0.889 ± 0.099,0.87 ± 0.11,0.783 ± 0.13,1.07 ± 0.15,0.873 ± 0.22,0.975 ± 0.15,1.02 ± 0.15,0.858 ± 0.12,0.746 ± 0.077,0.308 ± 0.031,0.182 ± 0.0035
SAOS2 BONE,0.8247 ± 0.0029,0.805 ± 0.068,0.856 ± 0.016,0.698 ± 0.11,0.968 ± 0.024,0.904 ± 0.063,0.685 ± 0.034,0.462 ± 0.054,1.1 ± 0.019,1.01 ± 0.057,1.05 ± 0.091,1.07 ± 0.055,0.887 ± 0.033,0.637 ± 0.027,0.176 ± 0.024,0.06 ± 0.0087
22RV1 PROSTATE,0.962 ± 0.044,0.979 ± 0.053,0.962 ± 0.029,0.887 ± 0.026,0.922 ± 0.0089,0.886 ± 0.051,0.738 ± 0.032,0.573 ± 0.088,1.01 ± 0.03,1.01 ± 0.066,0.972 ± 0.051,1 ± 0.021,1.03 ± 0.033,0.877 ± 0.083,0.608 ± 0.028,0.263 ± 0.039
CAL51 BREAST,0.911 ± 0.036,0.893 ± 0.052,0.904 ± 0.018,0.884 ± 0.014,0.729 ± 0.043,0.621 ± 0.037,0.273 ± 0.016,0.17 ± 0.011,0.966 ± 0.047,0.9993 ± 0.0062,1.01 ± 0.016,0.994 ± 0.044,0.853 ± 0.012,0.48 ± 0.031,0.0318 ± 0.0013,0.0317 ± 0.0026
OSHN BONE,0.9207 ± 0.0087,0.916 ± 0.012,0.916 ± 0.007,0.903 ± 0.024,0.925 ± 0.0044,0.856 ± 0.07,0.29 ± 0.039,0.132 ± 0.03,1.06 ± 0.03,1.06 ± 0.026,1.08 ± 0.04,1.05 ± 0.039,1.08 ± 0.04,1.06 ± 0.046,0.143 ± 0.016,0.0503 ± 0.0025
A549 LUNG,0.932 ± 0.023,0.94 ± 0.032,0.956 ± 0.023,0.915 ± 0.046,1 ± 0.042,1.01 ± 0.018,0.825 ± 0.019,0.593 ± 0.032,1.02 ± 0.051,0.985 ± 0.059,0.995 ± 0.057,0.998 ± 0.032,1.05 ± 0.037,1.08 ± 0.047,0.816 ± 0.02,0.38 ± 0.011
SUM149 BREAST,0.779 ± 0.092,0.889 ± 0.09,0.707 ± 0.034,0.451 ± 0.08,0.273 ± 0.029,0.255 ± 0.069,0.106 ± 0.015,0.048 ± 0.013,1.13 ± 0.077,1.09 ± 0.069,1.16 ± 0.095,1.12 ± 0.097,0.706 ± 0.025,0.328 ± 0.024,0.073 ± 0.0044,0.0517 ± 0.0025
SUM44 BREAST,0.917 ± 0.045,0.918 ± 0.013,0.92 ± 0.058,0.93 ± 0.025,1.06 ± 0.037,0.973 ± 0.088,0.853 ± 0.059,0.824 ± 0.023,1.043 ± 0.0078,1.08 ± 0.034,1.04 ± 0.023,1.07 ± 0.017,0.979 ± 0.017,0.561 ± 0.014,0.26 ± 0.0095,0.254 ± 0.01
BT549 BREAST,0.82 ± 0.091,0.818 ± 0.16,0.637 ± 0.1,0.599 ± 0.11,0.421 ± 0.053,0.304 ± 0.053,0.121 ± 0.011,0.122 ± 0.048,1.15 ± 0.1,1.11 ± 0.13,1.09 ± 0.089,1.04 ± 0.089,0.783 ± 0.038,0.427 ± 0.011,0.0453 ± 0.0057,0.0453 ± 0.0032
YAMATO SYNOVIAL,0.889 ± 0.13,0.929 ± 0.095,0.955 ± 0.081,1.03 ± 0.075,1.21 ± 0.083,1.11 ± 0.08,0.871 ± 0.088,0.796 ± 0.033,1.31 ± 0.14,1.29 ± 0.064,1.43 ± 0.074,1.2 ± 0.093,1.27 ± 0.12,0.972 ± 0.036,0.463 ± 0.031,0.424 ± 0.018
VP229 BREAST,0.776 ± 0.093,0.759 ± 0.052,0.754 ± 0.081,0.711 ± 0.072,0.915 ± 0.089,0.893 ± 0.093,0.837 ± 0.08,0.665 ± 0.076,1.13 ± 0.14,1.01 ± 0.044,1.01 ± 0.056,1.07 ± 0.063,1.02 ± 0.034,0.754 ± 0.093,0.41 ± 0.056,0.261 ± 0.013
SJSA1 BONE,0.855 ± 0.056,0.861 ± 0.079,0.839 ± 0.026,0.773 ± 0.011,0.654 ± 0.029,0.504 ± 0.025,0.481 ± 0.029,0.44 ± 0.024,1 ± 0.011,1.0057 ± 0.00058,1.03 ± 0.026,1.04 ± 0.034,1.02 ± 0.033,0.938 ± 0.049,0.384 ± 0.011,0.317 ± 0.02
SCC90 HEADNECK,0.933 ± 0.085,0.929 ± 0.061,0.94 ± 0.082,0.946 ± 0.018,1.06 ± 0.089,1.03 ± 0.085,0.885 ± 0.11,0.783 ± 0.044,1.25 ± 0.31,1.2 ± 0.16,1.07 ± 0.078,1.12 ± 0.25,0.704 ± 0.034,0.355 ± 0.017,0.0583 ± 0.0068,0.0493 ± 0.011
KPD BONE,0.862 ± 0.01,0.828 ± 0.062,0.875 ± 0.021,0.891 ± 0.034,0.767 ± 0.018,0.699 ± 0.018,0.495 ± 0.04,0.407 ± 0.014,0.945 ± 0.12,0.91 ± 0.02,0.971 ± 0.029,0.949 ± 0.031,0.954 ± 0.034,0.808 ± 0.039,0.293 ± 0.0046,0.175 ± 0.009
